Reference: patent US9873680B2 (Gilead Sciences, Inc., priority 2014, dated 2018)

What was measured:
[1] = tested on: HIV-IIIb; test: Test A: Antiviral Assay in MT4 Cells; type: cell-based, HIV-1; settings: Human immunodeficiency virus 1, MT4, 120 h; 0.2 μM drug concentration; MT-4 cells infected with HIV-IIIb, 5 days; values normalized to 100%; average over time; read-out: % inhibition at 0.2 μM (percent inhibition of virus-induced cell killing)
Summary of the method: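 MT-4 cells were preinfected with HIV-IIIb […]. Cell viability, as protection from viral cytopathic effect, was read by CellTiter-Glo chemiluminescence.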

[2] = Test B: Cytotoxicity Assay; type: cell-based; settings: human, uninfected MT-4 cells, CellTiter-Glo
Description: Test B: Cytotoxicity Assay Compound cytotoxicity and the corresponding CC50 values was determined using the same protocol as described in the antiviral assay (Test A) except that uninfected cells were used.

SMILES	inhibition at 0.2 µM [1] [%]	CC50 at 5 days [2] [µM]
CN1CCN(C(C)(C)C#Cc2ccc(-c3ccc(Cl)c4c(NS(C)(=O)=O)nn(C)c34)c([C@H](Cc3cc(F)cc(F)c3)NC(=O)Cn3nc(C(F)(F)F)c4c3C(F)(F)[C@@H]3C[C@H]43)n2)CC1 [Compound 41, N—((S)-1-(3-(4-chloro-1-methyl-3-(methylsulfonamido)-1H-indazol-7-yl)-6-(3-methyl-3-(4-methylpiperazin-1-yl)but-1-yn-1-yl)pyridin-2-yl)-2-(3,5-difluorophenyl)ethyl)-2-((3bS,4aR)-5,5-difluoro-3-(trifluoromethyl)-3b,4,4a,5-tetrahydro-1H-cyclopropa[3,4]cyclopenta[1,2-c]pyrazol-1-yl)acetamide]	98	2.08
Cn1nc(NS(C)(=O)=O)c2c(Cl)ccc(-c3ccc(C#CC4(O)CC4)nc3[C@H](Cc3cc(F)cc(F)c3)NC(=O)Cn3nc(C(F)F)c4c3C(F)(F)[C@@H]3C[C@H]43)c21 [Compound 62B, N—((S)-1-(3-(4-chloro-1-methyl-3-(methylsulfonamido)-1H-indazol-7-yl)-6-((1-hydroxycyclopropyl)ethynyl)pyridin-2-yl)-2-(3,5-difluorophenyl)ethyl)-2-((3bS,4aR)-3-(difluoromethyl)-5,5-difluoro-3b,4,4a,5-tetrahydro-1H-cyclopropa[3,4]cyclopenta[1,2-c]pyrazol-1-yl)acetamide]	93	14.9
